Data: patent US7393526B2, “Systemic gene delivery vehicles for the treatment of tumors” (Children's Medical Center Corporation, priority 2000, dated 2008)

How the values were obtained:
CNS-1 glioma cells = assay: Co-culture of CD-NSCs with glioma cells plus 5-FC: tumor cell count per high-power field; type: cell-based; settings: tumor cell-only plates, no CD-NSCs, 5-FC 500 μg/ml
Text: FIGS. 2A-2C summarize the significant antitumor effect of CD-expressing NSCs in vitro. CNS-1 glioblastoma cells were co-cultured with murine CD-NSCs (FIGS. 2A and 2B) or human CD-NSCs. Representative low power fields are shown after fixation and X-gal staining (CD-NSCs dark blue, tumor cells pale) three days after plating with or without 5-FC. […] In this treatment regime, the NSCs were still dividing and thus also subject to elimination by 5-FU and its toxic metabolites. […] Note also, that the tumor-killing effect was virtually identical whether 50,000 or 100,000 CD-NSCs were initially plated with 200,000 tumor cells.
This experiment was performed to determine if modified CD-NSCs could effectively deliver therapy to tumor cells and produce a profound antitumor response. 200,000 CNS-1 glioma cells were plated into 10 cm Petri dishes. The following day (Day 1) media were replaced, and 50,000 or 100,000 CD-NSCs were added. On Day 2, media were replaced and 5-FC added (500 μg/ml). Control dishes included tumor-NSC co-cultures with no 5-FC treatment and tumor cell-only dishes with 5-FC treatment. Three days later, all plates were rinsed well with 1× PBS and fixed with 4% paraformaldehyde for 10 min at room temperature. […] Under high power, the numbers of tumor cells per field were counted. […]

CNS-1 glioblastoma = assay: Intracranial CNS-1 tumor co-transplanted with CD-NSCs, i.p. 5-FC: tumor mass; type: in vivo, adult nude mice; settings: tumor alone, 5-FC 900 mg/kg i.p. for 10 days
Text: CNS-1 glioblastoma cells alone, or CNS-1 cells co-transplanted with human CS-NSCs were implanted into the frontal lobe of adult nude mice. Two days later, treated animals began to receive daily intraperitoneal injections of 5-FC which continued for ten days. […] Note that there was about an 80% reduction in tumor mass in 5-FC-treated animals transplanted with tumor and CD-NSCs (FIG. 3D). […] FIGS. 3B, 3C and 3D are “camera lucida” sections of tumor areas on representative cryostat tissue sections, stained with X-gal and counterstained with neutral red.
On Day 0, adult nude mice received stereotactically guided injections into the right frontal lobe of CNS-1 glioblastoma alone (7×10^4 in 2 μl PBS), or CNS-1 cells mixed with CD-NSCs (7×10^4 CNS-1 and 3.5×10^4 NSCs in 2 μl PBS). Two days later treated animals received 10 intraperitoneal injections 900 mg/kg of 5-FC over a period of 10 days. Control animals received no 5-FC. Animals were sacrificed on day 13.

## Nc1nc(=O)[nH]cc1F [5-FC, 5-fluorocytosine]
CNS-1 glioma cells
  killing of tumor cells, tumor alone: not significantly killed
CNS-1 glioblastoma
  effect on tumor mass in the absence of CD-NSCs: no effect on tumor mass
